What follows are molecules tested on Ewing's sarcoma cells (assay: Cell viability with drug screening (CellTiter Glo, 72 hour)). Details: SK-N-MC, SKESI, A673 cells.
Format: cell-based
Description: A hemocytometer count is performed to determine cell concentration. In a 96-well tissue culture plate, 2000 cells per well are plated for each drug concentration. Generally, 10 wells are done in duplicate. Then, the plates are placed in incubator overnight to allow cells to adhere to the plate (If suspension cells, proceed to the next step). Then, the desired drug concentrations are added to each well (ex. Serial dilutions 10 uM, 3 uM, 1 uM, […] . . . etc.). Generally, each drug concentration is made at 10× in media and then 10 uL of drug is diluted in 90 uL of cells to get the final desired concentration. Then, the cells are incubated at 37° C. for 72 hours; after 72 hours, 100 uL of Promega Cell Titer Glo is added, and allowed incubation at room temperature for 10 minutes. Finally, the plates are read using the Envision software. Data analysis is performed using Graph Pad Prism 6.
FIGS. 5-7 depict graphs showing 72 hour time course cell viability of Ewing's sarcoma using CellTiter Glo (Promega). The tested compound was 10054Z and the control compound was 2606 which has the following structure: […]

Row | Compound | viability of Ewing's sarcoma cells (in words, FIGS. 5-7)
1 | CC1CC(=NNC(=O)c2cccc(S(=O)(=O)N3CCN(C)CC3)c2)c2c(O)ccc(Cl)c21 (stereo in doubt) [SP-10054_Z, (E)-N′-(4-chloro-7-hydroxy-3-methyl-2,3-dihydro-1H-inden-1-ylidene)-3-((4-methylpiperazin-1-yl)sulfonyl)benzohydrazide] | significantly decrease the viability

These molecules were tested against T1, LSD1 (Homo sapiens, UniProt O60341) (assay: LSD1 histone demethylase assay (LSD1 Inhibitor Screening Assay Kit, Cayman)). Details: not given.
T1 construct: purchased Cayman Chemical Company 700120
Format: biochemical
Description: Recombinant (expressed in baculovirus infected BTI insect cells) monoamine oxidase A and monoamine oxidase B (Catalog No. M7316 and M7441, respectively) were purchased from Sigma-Aldrich Co. LLC. (St. Louis, Mo.). MAO-Glo™ Assay Kit was purchased from Promega Corporation (Madison, Wis.). ATPlite™ Luminescence Assay System (e.g. Catalog No. V1401) was purchased from PerkinElmer Inc. (Waltham, Mass.).
Briefly, test compounds were diluted to 20× the desired test concentration in 100% DMSO and 2.5 μL of the diluted test sample was added to a black 384-well plate. The LSD1 enzyme stock was diluted 17-fold with assay buffer, and 40 μL of the diluted LSD1 enzyme was added to the appropriate wells. Substrate, consisting of horseradish peroxidase, dimethyl K4 peptide corresponding to the first 21 amino acids of the N-terminal tail of histone H3, and 10-acetyl-3,7-dihydroxyphenoxazine was then added to wells. Resorufin was analyzed on an Envision plate reader with an excitation wavelength of 530 nm and an emission wavelength of 595 nm.
IC50 values are determined using GraphPad Prism 5 software. The data were entered as an X-Y plot into the software as percent inhibition for each concentration of the drug. The concentration values of the drug were log transformed and the nonlinear regression was carried out using the “sigmoidal dose-response (variable slope)” option within the GraphPad software to model the data and calculate IC50 values.

Row | Compound | IC50 [µM]
2 | CCN1CCN(S(=O)(=O)c2cccc(C(=O)NN=C3CCc4c(Cl)cc(C)c(O)c43)c2)CC1 (stereo in doubt) [SP-10047_Z, (E)-N′-(4-chloro-7-hydroxy-6-methyl-2,3-dihydro-1H-Inden-1-ylidene)-3-((4-ethylpiperazin-1-yl)sulfonyl)benzohydrazide] | 0.426
3 | Cc1cc(Cl)c2c(c1O)/C(=N/NC(=O)c1cccc(S(=O)(=O)N3CCC(C)CC3)c1)CC2 [SP-10046_E, (E)-N′-(4-chloro-7-hydroxy-6-methyl-2,3-dihydro-1H-inden-1-ylidene)-3-((4-methylpiperidin-1-yl)sulfonyl)benzohydrazide] | > 10
4 | CN1CCN(S(=O)(=O)c2cccc(C(=O)N/N=C3\CCc4cc(O)cc(Cl)c43)c2)CC1 [SP-10043-E, (E)-N′-(7-chloro-5-hydroxy-2,3-dihydro-1H-inden-1-ylidene)-3-((4-methylpiperazin-1-yl)sulfonyl)benzohydrazide] | > 10
5 | CN1CCN(S(=O)(=O)c2cccc(C(=O)N/N=C3/CCc4cc(O)cc(Cl)c43)c2)CC1 [SP-10043_Z] | > 10
6 | Cc1ccc(Cl)c2c1/C(=N/NC(=O)c1cccc(S(=O)(=O)N3CCN(C)CC3)c1)CC2 [SP-10061_E, (E)-N′-(4-chloro-7-methyl-2,3-dihydro-1H-inden-1-ylidene)-3-((4-methylpiperazin-1-yl)sulfonyl)benzohydrazide] | 30.4
7 | CN1CCN(S(=O)(=O)c2cccc(C(=O)N/N=C3/CCc4c(F)ccc(O)c43)c2)CC1 [SP-10044_Z] | 0.403

Continued, values first:

Row | IC50 [µM] | Compound
8 | 0.029 | CC1CC(=NNC(=O)c2cccc(S(=O)(=O)N3CCN(C)CC3)c2)c2c(O)ccc(Cl)c21 (stereo in doubt) [SP-10054_Z, (E)-N′-(4-chloro-7-hydroxy-3-methyl-2,3-dihydro-1H-inden-1-ylidene)-3-((4-methylpiperazin-1-yl)sulfonyl)benzohydrazide]
9 | 0.418 | CC1CC(=NNC(=O)c2cccc(S(=O)(=O)N3CCOCC3)c2)c2c(O)ccc(Cl)c21 (stereo in doubt) [SP-10055_Z, (E)-N′-(4-chloro-7-hydroxy-3-methyl-2,3-dihydro-1H-inden-1-ylidene)-3-(morpholinosulfonyl)benzohydrazide]
10 | 0.078 | CC1C/C(=N\NC(=O)c2cccc(S(=O)(=O)N3CCOCC3)c2)c2c(O)ccc(Cl)c21 (stereo not drawn) [SP-10055_E, (E)-N′-(4-chloro-7-hydroxy-3-methyl-2,3-dihydro-1H-inden-1-ylidene)-3-(morpholinosulfonyl)benzohydrazide]

Each molecule was assayed against T2, LSD2 (Homo sapiens, UniProt Q8NB78) (assay: LSD2 enzymatic activity (FIG. 4)). Details: not given.
T2 sequence (Q8NB78 1-822): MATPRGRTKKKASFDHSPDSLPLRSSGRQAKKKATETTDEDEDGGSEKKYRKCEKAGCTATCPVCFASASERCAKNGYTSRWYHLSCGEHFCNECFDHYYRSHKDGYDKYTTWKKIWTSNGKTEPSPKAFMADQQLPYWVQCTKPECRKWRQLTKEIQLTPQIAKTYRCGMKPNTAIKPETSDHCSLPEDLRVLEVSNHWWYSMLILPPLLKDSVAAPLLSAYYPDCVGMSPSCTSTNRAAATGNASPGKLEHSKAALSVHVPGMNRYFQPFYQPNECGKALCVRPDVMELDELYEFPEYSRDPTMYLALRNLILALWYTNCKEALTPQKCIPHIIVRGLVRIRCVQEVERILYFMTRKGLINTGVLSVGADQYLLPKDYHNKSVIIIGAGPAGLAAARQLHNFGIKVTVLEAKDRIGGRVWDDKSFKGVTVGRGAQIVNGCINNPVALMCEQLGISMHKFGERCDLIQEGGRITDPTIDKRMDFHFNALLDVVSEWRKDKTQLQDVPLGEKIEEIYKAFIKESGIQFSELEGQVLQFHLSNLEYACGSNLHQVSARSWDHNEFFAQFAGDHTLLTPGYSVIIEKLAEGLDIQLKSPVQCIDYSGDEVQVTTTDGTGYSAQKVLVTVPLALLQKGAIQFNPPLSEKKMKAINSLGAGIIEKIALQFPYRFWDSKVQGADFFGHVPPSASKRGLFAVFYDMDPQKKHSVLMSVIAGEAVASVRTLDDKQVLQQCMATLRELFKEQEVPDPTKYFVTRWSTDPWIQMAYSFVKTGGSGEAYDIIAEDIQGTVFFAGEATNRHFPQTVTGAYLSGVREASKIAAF
Format: biochemical
Source text: Inhibition of LSD activity can be determined by a variety of both in vitro and in vivo methods known to one skilled in the art. For example, enzymatic activity can be determined in in vitro enzyme assay systems. In various aspects, the enzymatic activity of either LSD1 or LSD2 can be determined in a spectrophometric assay. Briefly, the assay is based on the multistep enzymatic reaction in which LSD1 or LSD2 first produces H2O2 during the demethylation of lysine 4 on a peptide corresponding to the first 21 amino acids of the N-terminal tail of histone H3. In the presence of horseradish peroxidase, the H2O2 produced reacts with ADHP to produce the highly fluorescent compound resorufin that can be analyzed with an excitation wavelength of 530-540 nm and an emission wavelength of 585-595 nm. The assay requires a source of LSD or LSD2 enzyme, either purified from natural sources (e.g. a tissue or cultured cells), isolated as a recombinantly expressed protein, or as a unpurified protein in whole cell extracts.

Row | inhibition of LSD2 activity (in words, FIG. 4) | Compound
11 | significantly inhibit | CN1CCN(S(=O)(=O)c2cccc(C(=O)N/N=C3/CCc4c(Cl)ccc(O)c43)c2)CC1 [SP-10041_Z]
12 | significantly inhibit | CN1CCN(S(=O)(=O)c2cccc(C(=O)N/N=C3\CCc4c(Cl)ccc(O)c43)c2)CC1 [SP-10041_E, (E)-N′-(4-chloro-7-hydroxy-2,3-dihydro-1H-inden-1-ylidene)-3-((4-methylpiperazin-1-yl)sulfonyl)benzohydrazide]

From US20170001970A1, “Substituted benzohydrazide analogs as histone demethylase inhibitors” (University of Utah Research Foundation, priority 2015, published 2017)
